Assay results published in patent US20190330224A1, “ACC INHIBITORS AND USES THEREOF” (Gilead Apollo, LLC, priority 2015, published 2019).
In brackets after ≈: the same amount, converted by molar mass.

Tests used:
[1] = compound concentration 10 ppm, foliar spray, evaluated 7 days after inoculation
Human ACC2 = Human ACC2 (Homo sapiens, UniProt O00763); assay: In vitro ACC2 inhibition assay (ADP-Glo), human ACC2; type: biochemical; conditions: 5 nM ACC2, 20 μM ATP, 20 μM acetyl-CoA
C. albicans ATCC 90028 = assay: Anti-Fungal Activity Assay (broth microtiter MIC), C. albicans; type: cell-based, Candida albicans; conditions: Candida albicans, ATCC90028, 48 h, 3 replicates; MIC recorded at 48 h; read-out: MIC C. albicans ATCC 90028
How it was run: (§1)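 Susceptibility testing used direct colony suspensions in RPMI 1640+MOPS from Sabouraud dextrose agar grown at 35° C. Endpoints were visual MICs at 48 h under CLSI M27-A3 microtiter conditions, plus a 24 h reading for soraphen.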

C. krusei ATCC 6258 = assay: Anti-Fungal Activity Assay (broth microtiter MIC), C. krusei; type: cell-based, Candida krusei; conditions: Pichia kudriavzevii, ATCC6258, 48 h, 3 replicates; MIC recorded at 48 h; read-out: MIC C. krusei ATCC 6258
How it was run: as §1

[2] = test system: C. parapsilosis ATCC 22019; assay: Anti-Fungal Activity Assay (broth microtiter MIC), C. parapsilosis; type: cell-based, Candida parapsilosis; conditions: Lodderomyces parapsilosis, ATCC22019, 48 h, 3 replicates; MIC recorded at 48 h; read-out: MIC C. parapsilosis ATCC 22019
How it was run: as §1

Botrtyis cinerea (Bc) = assay: Growth inhibition assay of fungal pathogens, Bc; type: cell-based; conditions: 48 hours; read-out: Concentration at 90% Inhibition, Bc
How it was run: (§2)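 Spores in 17% V8 liquid medium were exposed to compound at final 50, 10 and 2 ppm or 2, 0.4 and 0.08 ppm with 2% DMSO. After 48 h, OD600 (blank-subtracted) and visual ratings were compared with the 2% DMSO control to give percent growth inhibition.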

[3] = test system: Collectotrichum graminicola (Cg); assay: Growth inhibition assay of fungal pathogens, Cg; type: cell-based; conditions: 48 hours; read-out: Concentration at 90% Inhibition, Cg
How it was run: as §2

Diplodia maydis (Dm) = assay: Growth inhibition assay of fungal pathogens, Dm; type: cell-based; conditions: Stenocarpella maydis; 48 hours; read-out: Concentration at 90% Inhibition, Dm
How it was run: as §2

[4] = test system: Fusarium moniliforme (Fm); assay: Growth inhibition assay of fungal pathogens, Fm; type: cell-based; conditions: Fusarium verticillioides; 48 hours; read-out: Concentration at 90% Inhibition, Fm
How it was run: as §2

[5] = test system: Fusarium virguliforme (Fv); assay: Growth inhibition assay of fungal pathogens, Fv; type: cell-based; conditions: 48 hours, read-out: Concentration at 90% Inhibition, Fv
How it was run: as §2

[6] = test system: Phytophthora capsici (Pc); assay: Growth inhibition assay of fungal pathogens, Pc; type: cell-based; conditions: 48 hours, read-out: Concentration at 90% Inhibition, Pc
How it was run: as §2

Rhizoctonia solani (Rs) = assay: Growth inhibition assay of fungal pathogens, Rs; type: cell-based; conditions: 48 hours, read-out: Concentration at 90% Inhibition, Rs
Septoria tritici (St) = assay: Growth inhibition assay of fungal pathogens, St; type: cell-based; conditions: Zymoseptoria tritici; 48 hours; read-out: Concentration at 90% Inhibition, St
How it was run: as §2

[7] = test system: Blumeria graminis f sp. hordei; assay: Foliar protection test, barley powdery mildew control; type: in vivo, Blumeria graminis f sp. hordei on Hordeum vulgare cv. Perry; conditions: 168 h, compound concentration 50 ppm, foliar spray, evaluated 7 days after inoculation, read-out: Barley Powdery Mildew Control at 50 ppm
How it was run: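 Barley cv. Perry at first true leaf (6 days) sprayed to wetness on both leaf sides with compound in 5% acetone/0.005% Tween 80, typically at 200, 100, 50, 10 or 2 ppm. Inoculated 24 h later by shaking spores from colonized plants; kept at 20-22 °C, 70% RH. Mildew colonization scored 7 days later as percent control.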

Fungal ACC2 = Fungal ACC2 (UniProt Q00955); conditions: read-out: Fungal ACC2 (IC50, in vitro ACC2 inhibition)
Chain of Fungal ACC2 (Q00955 whole entry): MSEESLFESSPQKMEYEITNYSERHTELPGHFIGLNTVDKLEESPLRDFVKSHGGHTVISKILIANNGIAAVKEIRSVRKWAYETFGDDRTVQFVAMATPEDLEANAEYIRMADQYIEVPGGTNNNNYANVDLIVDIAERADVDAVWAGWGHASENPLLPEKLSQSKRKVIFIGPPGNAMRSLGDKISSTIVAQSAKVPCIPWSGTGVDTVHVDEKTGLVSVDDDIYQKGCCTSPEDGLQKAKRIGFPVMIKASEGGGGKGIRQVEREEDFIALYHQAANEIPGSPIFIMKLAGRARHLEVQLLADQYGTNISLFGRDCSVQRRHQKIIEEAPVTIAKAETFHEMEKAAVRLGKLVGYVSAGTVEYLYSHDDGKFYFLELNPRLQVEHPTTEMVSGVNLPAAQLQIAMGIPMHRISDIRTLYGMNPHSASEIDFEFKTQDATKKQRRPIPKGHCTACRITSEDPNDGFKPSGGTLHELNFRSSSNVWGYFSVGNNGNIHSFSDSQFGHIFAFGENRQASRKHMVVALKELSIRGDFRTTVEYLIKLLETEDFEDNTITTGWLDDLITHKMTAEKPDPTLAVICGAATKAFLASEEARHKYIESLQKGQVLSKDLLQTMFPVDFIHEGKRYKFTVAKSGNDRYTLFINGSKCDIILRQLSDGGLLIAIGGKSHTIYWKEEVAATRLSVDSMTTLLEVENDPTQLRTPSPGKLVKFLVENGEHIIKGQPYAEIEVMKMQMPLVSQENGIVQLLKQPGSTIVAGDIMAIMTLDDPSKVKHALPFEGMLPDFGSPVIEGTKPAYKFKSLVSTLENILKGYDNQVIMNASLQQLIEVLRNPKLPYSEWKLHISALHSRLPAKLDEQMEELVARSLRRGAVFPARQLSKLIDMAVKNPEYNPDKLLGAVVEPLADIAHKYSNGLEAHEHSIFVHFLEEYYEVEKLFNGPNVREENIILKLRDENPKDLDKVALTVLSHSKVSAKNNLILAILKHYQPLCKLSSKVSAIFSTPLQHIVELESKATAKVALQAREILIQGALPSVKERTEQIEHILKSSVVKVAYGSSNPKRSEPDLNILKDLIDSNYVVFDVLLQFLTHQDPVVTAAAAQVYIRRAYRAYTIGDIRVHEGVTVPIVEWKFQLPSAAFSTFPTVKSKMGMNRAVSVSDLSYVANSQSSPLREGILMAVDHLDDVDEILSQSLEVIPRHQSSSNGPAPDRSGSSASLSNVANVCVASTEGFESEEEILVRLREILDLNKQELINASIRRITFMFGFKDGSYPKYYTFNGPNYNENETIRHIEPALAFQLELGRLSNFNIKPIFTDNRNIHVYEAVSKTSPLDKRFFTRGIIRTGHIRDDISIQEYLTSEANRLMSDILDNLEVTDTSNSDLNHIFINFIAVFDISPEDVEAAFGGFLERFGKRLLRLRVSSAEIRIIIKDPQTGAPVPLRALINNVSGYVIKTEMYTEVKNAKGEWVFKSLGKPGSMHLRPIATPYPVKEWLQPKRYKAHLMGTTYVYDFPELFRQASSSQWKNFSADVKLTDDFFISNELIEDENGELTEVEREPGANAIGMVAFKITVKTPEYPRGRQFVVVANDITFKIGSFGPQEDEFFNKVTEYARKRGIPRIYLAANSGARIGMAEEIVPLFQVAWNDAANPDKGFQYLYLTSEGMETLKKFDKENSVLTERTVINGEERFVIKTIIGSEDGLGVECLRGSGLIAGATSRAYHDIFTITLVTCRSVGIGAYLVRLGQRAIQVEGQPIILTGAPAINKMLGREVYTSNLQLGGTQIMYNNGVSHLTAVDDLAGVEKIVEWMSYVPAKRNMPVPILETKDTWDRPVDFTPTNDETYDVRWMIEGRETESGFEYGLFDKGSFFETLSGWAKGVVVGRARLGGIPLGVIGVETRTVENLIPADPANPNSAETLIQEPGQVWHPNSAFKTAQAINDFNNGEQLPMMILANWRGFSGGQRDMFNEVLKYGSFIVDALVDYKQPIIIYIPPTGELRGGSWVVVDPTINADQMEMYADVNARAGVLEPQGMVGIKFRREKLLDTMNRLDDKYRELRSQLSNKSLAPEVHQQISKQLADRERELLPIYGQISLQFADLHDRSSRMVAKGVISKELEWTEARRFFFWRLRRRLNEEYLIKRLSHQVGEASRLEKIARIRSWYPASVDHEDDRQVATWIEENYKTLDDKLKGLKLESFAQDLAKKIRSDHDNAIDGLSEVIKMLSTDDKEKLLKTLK

Chain of Human ACC2 (O00763 whole entry): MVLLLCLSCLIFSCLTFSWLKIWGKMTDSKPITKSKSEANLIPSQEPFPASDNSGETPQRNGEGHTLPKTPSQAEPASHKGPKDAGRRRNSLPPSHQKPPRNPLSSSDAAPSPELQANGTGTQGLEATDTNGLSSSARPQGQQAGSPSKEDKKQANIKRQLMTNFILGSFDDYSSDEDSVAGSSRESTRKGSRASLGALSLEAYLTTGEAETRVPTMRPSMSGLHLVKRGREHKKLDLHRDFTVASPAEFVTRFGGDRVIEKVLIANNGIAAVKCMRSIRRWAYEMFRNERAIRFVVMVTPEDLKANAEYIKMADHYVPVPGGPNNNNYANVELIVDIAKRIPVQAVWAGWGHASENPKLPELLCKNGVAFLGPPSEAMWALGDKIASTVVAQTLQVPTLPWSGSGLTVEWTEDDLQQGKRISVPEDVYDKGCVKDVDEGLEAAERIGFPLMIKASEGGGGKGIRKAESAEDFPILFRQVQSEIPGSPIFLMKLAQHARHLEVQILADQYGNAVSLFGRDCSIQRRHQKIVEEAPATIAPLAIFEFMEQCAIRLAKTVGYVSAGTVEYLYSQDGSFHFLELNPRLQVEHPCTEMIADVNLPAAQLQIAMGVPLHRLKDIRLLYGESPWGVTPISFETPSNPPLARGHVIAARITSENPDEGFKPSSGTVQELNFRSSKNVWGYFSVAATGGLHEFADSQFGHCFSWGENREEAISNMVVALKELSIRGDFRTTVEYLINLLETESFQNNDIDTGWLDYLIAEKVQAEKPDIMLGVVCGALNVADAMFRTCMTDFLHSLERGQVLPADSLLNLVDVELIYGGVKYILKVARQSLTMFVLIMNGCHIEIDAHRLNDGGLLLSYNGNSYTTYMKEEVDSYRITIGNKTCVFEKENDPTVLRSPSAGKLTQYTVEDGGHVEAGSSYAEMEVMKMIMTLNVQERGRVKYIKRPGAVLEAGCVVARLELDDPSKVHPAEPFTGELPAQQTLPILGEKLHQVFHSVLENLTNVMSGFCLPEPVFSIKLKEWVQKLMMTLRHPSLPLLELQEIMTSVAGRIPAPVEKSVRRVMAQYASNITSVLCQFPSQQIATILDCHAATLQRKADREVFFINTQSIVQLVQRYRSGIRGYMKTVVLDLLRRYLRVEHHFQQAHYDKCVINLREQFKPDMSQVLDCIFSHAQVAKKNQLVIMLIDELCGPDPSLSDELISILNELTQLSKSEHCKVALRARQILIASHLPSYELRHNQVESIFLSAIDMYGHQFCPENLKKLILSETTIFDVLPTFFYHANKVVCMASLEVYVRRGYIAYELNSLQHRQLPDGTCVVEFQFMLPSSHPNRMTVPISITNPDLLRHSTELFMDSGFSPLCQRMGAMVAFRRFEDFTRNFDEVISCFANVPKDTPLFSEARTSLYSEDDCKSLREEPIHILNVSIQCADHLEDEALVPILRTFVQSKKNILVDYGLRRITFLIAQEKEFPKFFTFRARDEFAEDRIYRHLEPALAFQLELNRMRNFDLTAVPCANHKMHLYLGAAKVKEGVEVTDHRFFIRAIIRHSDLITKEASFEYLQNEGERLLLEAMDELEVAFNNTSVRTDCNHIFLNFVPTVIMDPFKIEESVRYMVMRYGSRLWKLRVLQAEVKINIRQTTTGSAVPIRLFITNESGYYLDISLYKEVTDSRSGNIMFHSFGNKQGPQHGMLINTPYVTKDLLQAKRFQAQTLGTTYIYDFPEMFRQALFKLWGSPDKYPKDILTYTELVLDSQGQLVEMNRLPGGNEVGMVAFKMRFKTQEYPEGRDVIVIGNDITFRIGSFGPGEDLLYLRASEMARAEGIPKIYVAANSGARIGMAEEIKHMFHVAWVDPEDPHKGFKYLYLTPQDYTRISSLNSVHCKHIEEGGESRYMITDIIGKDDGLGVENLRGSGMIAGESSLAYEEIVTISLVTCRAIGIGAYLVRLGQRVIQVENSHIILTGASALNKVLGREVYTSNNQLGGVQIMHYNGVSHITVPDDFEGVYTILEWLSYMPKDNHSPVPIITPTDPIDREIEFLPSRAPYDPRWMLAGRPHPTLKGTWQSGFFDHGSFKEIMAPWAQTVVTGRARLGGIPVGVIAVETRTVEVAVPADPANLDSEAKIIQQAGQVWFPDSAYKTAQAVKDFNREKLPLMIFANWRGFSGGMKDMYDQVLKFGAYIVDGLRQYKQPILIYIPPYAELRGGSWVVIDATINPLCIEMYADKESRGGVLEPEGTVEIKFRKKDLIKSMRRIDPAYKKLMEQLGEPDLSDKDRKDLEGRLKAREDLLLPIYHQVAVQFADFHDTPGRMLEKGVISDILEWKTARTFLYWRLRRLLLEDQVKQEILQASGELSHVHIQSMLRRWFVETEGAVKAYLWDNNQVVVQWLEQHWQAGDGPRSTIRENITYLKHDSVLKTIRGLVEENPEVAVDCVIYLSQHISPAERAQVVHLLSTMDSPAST

SMILES | Barley Powdery Mildew Control at 10 ppm [1] | IC50 (Human ACC2) [µM] | MIC (C. albicans ATCC 90028) [µg/mL] | MIC (C. krusei ATCC 6258) [µg/mL] | MIC [2] [µg/mL] | IC90 (Botrtyis cinerea (Bc)) [µg/mL] | IC90 [3] [µg/mL] | IC90 (Diplodia maydis (Dm)) [µg/mL] | IC90 [4] [µg/mL] | IC90 [5] [µg/mL] | IC90 [6] [µg/mL] | IC90 (Rhizoctonia solani (Rs)) [µg/mL] | IC90 (Septoria tritici (St)) [µg/mL] | pest or weed control at 50 ppm [7] [%] | IC50 (Fungal ACC2) [µM]
COCCO[C@@H](Cn1c(=O)n([C@@H]2CCN(C)C2=O)c(=O)c2c(C)c(-n3nccn3)sc21)c1cc(F)ccc1OC [Compound I-28, 1-((R)-2-(5-fluoro-2-methoxyphenyl)-2-(2-methoxy-ethoxy)ethyl)-5-methyl-3-((R)-1-methyl-2-oxopyrrolidin-3-yl)-6-(2H-1,2,3-triazol-2-yl)thieno[2,3-d]pyrimidine-2,4(1H, 3H)-dione] | A (provided a compound having from 70% to 84% control of barley powdery mildew) | 0.01 to 0.1 | 2.1 to 4 (≈ 3.67 to 6.99 µM) | 2.1 to 4 (≈ 3.67 to 6.99 µM) | 2.1 to 4 (≈ 3.67 to 6.99 µM) | 2 (≈ 3.49 µM) | > 50 | > 50 | 2 (≈ 3.49 µM) | > 50 | > 50 | 10 (≈ 17.5 µM) | > 50 | > 85 | 0.002 to 0.01
COCCO[C@@H](Cn1c(=O)n([C@H]2CCCNC2=O)c(=O)c2c(C)c(-n3nccn3)sc21)c1cc(F)ccc1OC [Compound I-29, 1-((R)-2-(5-fluoro-2-methoxyphenyl)-2-(2-methoxy-ethoxy)ethyl)-5-methyl-3-((S)-2-oxopiperidin-3-yl)-6-(2H-1,2,3-triazol-2-yl)thieno[2,3-d]pyrimidine-2,4(1H,3H)-dione] | C (provided a compound having from 25 to 49% control of barley powdery mildew) | 0.01 to 0.1 | 2.1 to 4 (≈ 3.67 to 6.99 µM) | 2.1 to 4 (≈ 3.67 to 6.99 µM) | 2.1 to 4 (≈ 3.67 to 6.99 µM) | 10 (≈ 17.5 µM) | > 50 | > 50 | 10 (≈ 17.5 µM) | > 50 | > 50 | > 50 | > 50 | 70 to 84 | 0.0007 to 0.002
COCCO[C@@H](Cn1c(=O)n([C@@H]2CCCNC2=O)c(=O)c2c(C)c(-n3nccn3)sc21)c1cc(F)ccc1OC [Compound I-30, 1-((R)-2-(5-fluoro-2-methoxyphenyl)-2-(2-methoxy-ethoxy)ethyl)-5-methyl-3-((R)-2-oxopiperidin-3-yl)-6-(2H-1,2,3-triazol-2-yl)thieno[2,3-d]pyrimidine-2,4(1H,3H)-dione] | D (provided a compound having <25% control of barley powdery mildew) | 0.01 to 0.1 | 2.1 to 4 (≈ 3.67 to 6.99 µM) | 2.1 to 4 (≈ 3.67 to 6.99 µM) | 2.1 to 4 (≈ 3.67 to 6.99 µM) | 10 (≈ 17.5 µM) | > 50 | > 50 | > 50 | > 50 | > 50 | > 50 | > 50 | 50 to 69 | 0.0007 to 0.002
COCCO[C@@H](Cn1c(=O)n([C@H]2CCCN(C)C2=O)c(=O)c2c(C)c(-n3nccn3)sc21)c1cc(F)ccc1OC [Compound I-31, 1-((R)-2-(5-fluoro-2-methoxyphenyl)-2-(2-methoxy-ethoxy)ethyl)-5-methyl-3-((S)-1-methyl-2-oxopiperidin-3-yl)-6-(2H-1,2,3-triazol-2-yl)thieno[2,3-d]pyrimidine-2,4(1H,3H)-dione] | B (provided a compound having from 50 to 69% control of barley powdery mildew) | 0.01 to 0.1 | 2.1 to 4 (≈ 3.58 to 6.82 µM) | 2.1 to 4 (≈ 3.58 to 6.82 µM) | 2.1 to 4 (≈ 3.58 to 6.82 µM) | 10 (≈ 17 µM) | > 50 | > 50 | 2 (≈ 3.41 µM) | 2 (≈ 3.41 µM) | > 50 | > 50 | > 50 | 70 to 84 | 0.0007 to 0.002
